Laboratory results reported in US6753322B2, “2-aminocarbonyl-9H-purine derivatives” (Pfizer Inc, priority 2000, dated 2004).

Tested on: neutrophils activated by fMLP
Assay: superoxide production from neutrophils activated by fMLP
Format: cell-based
Conditions: Neutrophil; concentration giving 50% inhibition of fMLP-induced superoxide production compared to control response; human peripheral blood neutrophils, cytochalasin B priming, adenosine deaminase present, cytochrome C reduction readout
Description: This is evaluated by determining the compound profile in an assay where superoxide production was measured from neutrophils activated by fMLP. Neutrophils were isolated from human peripheral blood using dextran sedimentation followed by centrifugation through Ficoll-Hypaque solution. Any contaminating erythrocytes in the granulocyte pellet were removed by lysis with ice-cold distilled water. Superoxide production from the neutrophils was induced by fMLP in the presence of a priming concentration of cytochalasin B. Adenosine deaminase was included in the assay to remove any endogenously produced adenosine that might suppress superoxide production. The effect of the compound on the fMLP-induced response was monitored colorometrically from the reduction of cytochrome C within the assay buffer. The potency of the compounds was assessed by the concentration giving 50% inhibition (IC50) compared to the control response to fMLP.

| SMILES | IC50 |
| --- | --- |
| CCNC(=O)[C@H]1O[C@@H](n2cnc3c(NCC(c4ccccc4)c4ccccc4)nc(C(=O)NCCNC(=O)NCCN4CCCCC4)nc32)[C@H](O)[C@@H]1O [Example 1, 6-[(2,2-Diphenylethyl)amino]-9-{(2R,3R,4S,5S)-5-[(ethylamino)carbonyl]-3,4-dihydroxytetrahydro-2-furanyl}-N-{2-[({[2-(1-piperidinyl)ethyl]amino}carbonyl)amino]ethyl}-9H-purine-2-carboxamide] | < 100 nM |
| CCNC(=O)[C@H]1O[C@@H](n2cnc3c(NCC(c4ccccc4)c4ccccc4)nc(C(=O)NCCNC(=O)NCCN(C(C)C)C(C)C)nc32)[C@H](O)[C@@H]1O [Example 2] | < 100 nM |
| O=C(NCCNC(=O)c1nc(NCC(c2ccccc2)c2ccccc2)c2ncn([C@@H]3O[C@H](CO)[C@@H](O)[C@H]3O)c2n1)NCCN1CCCCC1 [Example 3, 9-[(2R,3R,4S,5R)-3,4-Dihydroxy-5-(hydroxymethyl)tetrahydro-2-furanyl]-6-[(2,2-diphenylethyl)amino]-N-{2-[({[2-(1-piperidinyl)ethyl]amino}carbonyl)amino]ethyl}-9H-purine-2-carboxamide] | < 100 nM |
| CC(C)N(CCNC(=O)NCCNC(=O)c1nc(NCC(c2ccccc2)c2ccccc2)c2ncn([C@@H]3O[C@H](CO)[C@@H](O)[C@H]3O)c2n1)C(C)C [Example 4] | < 100 nM |
| CCNC(=O)[C@H]1O[C@@H](n2cnc3c(NCC(c4ccccc4)c4ccccc4)nc(C(=O)NCCNC(=O)NCCN4CCC(C(C)C)CC4)nc32)[C@H](O)[C@@H]1O [Example 5, 6-[(2,2-Diphenylethyl)amino]-9-{(2R,3R,4S,5S)-5-[(ethylamino)carbonyl]-3,4-dihydroxytetrahydro-2-furanyl}-N-{2-[({[2-(4-isopropyl-1-piperidinyl)ethyl]amino}carbonyl)amino]ethyl}-9H-purine-2-carboxamide] | < 100 nM |
| CCNC(=O)[C@H]1O[C@@H](n2cnc3c(NCC(c4ccccc4)c4ccccc4)nc(C(=O)NCCNC(=O)NCCN(C(C)C)C4CCCC4)nc32)[C@H](O)[C@@H]1O [Example 6, N-(2-{[({2-[Cycopentyl(isopropyl)amino]ethyl}amino)carbonyl]amino}ethyl)-6-[(2,2-diphenylethyl)amino]-9-{(2R,3R,4S,5S)-5-[(ethylamino)carbonyl]-3,4-dihydroxytetrahydro-2-furanyl}-9H-purine-2-carboxamide] | < 100 nM |
| CCNC(=O)[C@H]1O[C@@H](n2cnc3c(NCC(c4ccccc4)c4ccccc4)nc(C(=O)NCCNC(=O)NCCN(C(C)C)C4CCCCC4)nc32)[C@H](O)[C@@H]1O [Example 7, N-(2-{[({2-[Cyclohexyl(isopropyl)amino]ethyl}amino)carbonyl]amino}ethyl)-6-[(2,2-diphenylethyl)amino]-9-{(2R,3R,4S,5S)-5-[(ethylamino)carbonyl]-3,4-dihydroxytetrahydro-2-furanyl}-9H-purine-2carboxamide] | < 100 nM |
| CCNC(=O)[C@H]1O[C@@H](n2cnc3c(NCC(c4ccccc4)c4ccccc4)nc(C(=O)NCCNC(=O)NC4CCN(c5ccccn5)CC4)nc32)[C@H](O)[C@@H]1O [Example 8, 6-[(2,2-Diphenylethyl)amino]-9-{(2R,3R,4S,5S)-5-[(ethylamino)carbonyl]-3,4-dihydroxytetrahydro-2-furanyl}-N-{2-[({[1-(2-pyridinyl)-4-piperidinyl]amino}carbonyl)amino]ethyl}-9H-purine-2-carboxamide] | < 100 nM |
| CCCCN(CCCC)CCNC(=O)NCCNC(=O)c1nc(NCC(c2ccccc2)c2ccccc2)c2ncn([C@@H]3O[C@H](C(=O)NCC)[C@@H](O)[C@H]3O)c2n1 [Example 9] | < 100 nM |
| CCNC(=O)[C@H]1O[C@@H](n2cnc3c(NCC(c4ccccc4)c4ccccc4)nc(C(=O)NCCNC(=O)NC4CCN(Cc5ccccc5)CC4)nc32)[C@H](O)[C@@H]1O [Example 10] | < 100 nM |
| CCNC(=O)[C@H]1O[C@@H](n2cnc3c(NCC(c4ccccc4)c4ccccc4)nc(C(=O)NCCNC(=O)NCCN(Cc4ccccc4)C(C)C)nc32)[C@H](O)[C@@H]1O [Example 11] | < 100 nM |
| CCNC(=O)[C@H]1O[C@@H](n2cnc3c(NCC(c4ccccc4)c4ccccc4)nc(C(=O)NCCNC(=O)NCC4CCN(Cc5ccccc5)CC4)nc32)[C@H](O)[C@@H]1O [Example 12] | < 100 nM |
| CCNC(=O)[C@H]1O[C@@H](n2cnc3c(NCC(c4ccccc4)c4ccccc4)nc(C(=O)NCCNC(=O)NCc4ccccc4)nc32)[C@H](O)[C@@H]1O [Example 13] | < 100 nM |
| CCNC(=O)[C@H]1O[C@@H](n2cnc3c(NCC(c4ccccc4)c4ccccc4)nc(C(=O)NCCNC(=O)NCCc4ccccc4)nc32)[C@H](O)[C@@H]1O [Example 14] | < 100 nM |
| CCNC(=O)[C@H]1O[C@@H](n2cnc3c(NCC(c4ccccc4)c4ccccc4)nc(C(=O)NCCNC(=O)NC4CCCCC4)nc32)[C@H](O)[C@@H]1O [Example 15] | < 100 nM |
| CCNC(=O)[C@H]1O[C@@H](n2cnc3c(NCC(c4ccccc4)c4ccccc4)nc(C(=O)NCCNC(=O)NCCN4CCc5ccccc5C4)nc32)[C@H](O)[C@@H]1O [Example 16] | < 100 nM |
| CCNC(=O)[C@H]1O[C@@H](n2cnc3c(NCC(c4ccccc4)c4ccccc4)nc(C(=O)NCCCNC(=O)NCCN4CCCCC4)nc32)[C@H](O)[C@@H]1O [Example 18] | < 100 nM |
| CCNC(=O)[C@H]1O[C@@H](n2cnc3c(NCC(c4ccccc4)c4ccccc4)nc(C(=O)NCCCNC(=O)NCCN(C(C)C)C(C)C)nc32)[C@H](O)[C@@H]1O [Example 19] | < 100 nM |
| CCNC(=O)[C@H]1O[C@@H](n2cnc3c(NCC(c4ccccc4)c4ccccc4)nc(C(=O)N[C@H]4CC[C@H](NC(=O)NCCN5CCCCC5)CC4)nc32)[C@H](O)[C@@H]1O [Example 20] | < 100 nM |

Continued, values first:

| IC50 | SMILES |
| --- | --- |
| < 100 nM | CCNC(=O)[C@H]1O[C@@H](n2cnc3c(NCC(c4ccccc4)c4ccccc4)nc(C(=O)N[C@H]4CC[C@H](NC(=O)NCCN(C(C)C)C(C)C)CC4)nc32)[C@H](O)[C@@H]1O [Example 21] |
| < 100 nM | CCNC(=O)[C@H]1O[C@@H](n2cnc3c(NCC(c4ccccc4)c4ccccc4)nc(C(=O)NC4CCN(C(=O)NCCN(C(C)C)C(C)C)CC4)nc32)[C@H](O)[C@@H]1O [Example 22] |
| < 100 nM | CCNC(=O)[C@H]1O[C@@H](n2cnc3c(NCC(c4ccccc4)c4ccccc4)nc(C(=O)N[C@@H]4CCN(C(=O)NCCN(C(C)C)C(C)C)C4)nc32)[C@H](O)[C@@H]1O [Example 23] |
| < 100 nM | CCNC(=O)[C@H]1O[C@@H](n2cnc3c(NCC(c4ccccc4)c4ccccc4)nc(C(=O)N[C@@H]4CCN(C(=O)NCc5ccccc5)C4)nc32)[C@H](O)[C@@H]1O [Example 24] |
| < 100 nM | CCNC(=O)[C@H]1O[C@@H](n2cnc3c(NCC(c4ccccc4)c4ccccc4)nc(C(=O)N4CCC(NC(=O)NCc5ccccc5)CC4)nc32)[C@H](O)[C@@H]1O [Example 25] |
| < 100 nM | CCNC(=O)[C@H]1O[C@@H](n2cnc3c(NCC(c4ccccc4)c4ccccc4)nc(C(=O)N[C@@H]4CCN(C(=O)NCCc5ccccc5)C4)nc32)[C@H](O)[C@@H]1O [Example 26] |
| < 100 nM | CCNC(=O)[C@H]1O[C@@H](n2cnc3c(NCC(c4ccccc4)c4ccccc4)nc(C(=O)N[C@@H]4CCN(C(=O)NC5CCN(c6ccccn6)CC5)C4)nc32)[C@H](O)[C@@H]1O [Example 27] |
| < 100 nM | CCNC(=O)[C@H]1O[C@@H](n2cnc3c(NCC(c4ccccc4)c4ccccc4)nc(C(=O)N4CC[C@@H](NC(=O)NCCN(C(C)C)C(C)C)C4)nc32)[C@H](O)[C@@H]1O [Example 28] |
| < 100 nM | CCNC(=O)[C@H]1O[C@@H](n2cnc3c(NCC(c4ccccc4)c4ccccc4)nc(C(=O)N4CC[C@H](NC(=O)NCCN(C(C)C)C(C)C)C4)nc32)[C@H](O)[C@@H]1O [Example 29] |
| < 100 nM | CCNC(=O)[C@H]1O[C@@H](n2cnc3c(NCC(c4cccc(C)c4)c4cccc(C)c4)nc(C(=O)NCCNC(=O)NCCN(C(C)C)C(C)C)nc32)[C@H](O)[C@@H]1O [Example 30, 6-{[2,2-Bis(3-methylphenyl)ethyl]amino}-N-{2-[({[2-(diisopropylamino)ethyl]amino}carbonyl)-amino]ethyl}-9-{(2R,3R,4S,5S)-5-[(ethylamino)carbonyl]-3,4-dihydroxytetrahydro-2-furanyl}-9H-purine-2-carboxamide] |
| < 100 nM | CCNC(=O)[C@H]1O[C@@H](n2cnc3c(NCC(c4cccc(Cl)c4)c4cccc(Cl)c4)nc(C(=O)NCCNC(=O)NCCN(C(C)C)C(C)C)nc32)[C@H](O)[C@@H]1O [Example 31] |
| < 100 nM | CCNC(=O)[C@H]1O[C@@H](n2cnc3c(NCC(c4cccc(Cl)c4)c4cccc(Cl)c4)nc(C(=O)NCCNC(=O)NCCN4CCCCC4)nc32)[C@H](O)[C@@H]1O [Example 32, 6-{[2,2-Bis(3-chlorophenyl)ethyl]amino}-9-{(2R,3R,4S,5S)-5-[(ethylamino)carbonyl]-3,4-dihydroxytetrahydro-2-furanyl}-N-{2-[({[2-(1-piperidinyl)ethyl]amino}carbonyl)amino]ethyl}-9H-purine-2-carboxamide] |
| < 100 nM | CCNC(=O)[C@H]1O[C@@H](n2cnc3c(NCC(c4cccc(C)c4)c4cccc(C)c4)nc(C(=O)NCCNC(=O)NCCN4CCCCC4)nc32)[C@H](O)[C@@H]1O [Example 33] |
| < 100 nM | CCNC(=O)[C@H]1O[C@@H](n2cnc3c(NCC(c4ccccc4)c4ccccc4)nc(C(=O)NCCNC(=O)NCc4ccc(C(=O)O)cc4)nc32)[C@H](O)[C@@H]1O [Example 34, 4-[({[(2-{[(6-[(2,2-diphenylethyl)amino]-9-{(2R,3R,4S,5S)-5-[(ethylamino)carbonyl]-3,4-dihydroxytetrahydro-2-furanyl}-9H-purine-2-yl)carbonyl]amino}ethyl)amino]carbonyl}-amino)methyl]benzoic acid] |
